Tests used:
Assay type in all cases: functional
Escherichia coli [1] = test: Antimicrobial activity against community-acquired Escherichia coli obtained from patient with intra-abdominal infection assessed as susceptible isolates by EUCAST method
Escherichia coli [2] = test: Antimicrobial activity against hospital-acquired Escherichia coli obtained from patient with intra-abdominal infection assessed as susceptible isolates by EUCAST method
Escherichia coli [3] = test: Antimicrobial activity against community-acquired Escherichia coli expressing extended spectrum beta-lactamase obtained from patient with intra-abdominal infection assessed as susceptible isolates by EUCAST method
Klebsiella pneumoniae [4] = test: Antimicrobial activity against hospital-acquired Klebsiella pneumoniae obtained from patient with intra-abdominal infection assessed as susceptible isolates by EUCAST method
Klebsiella pneumoniae [5] = test: Antimicrobial activity against community-acquired Klebsiella pneumoniae obtained from patient with intra-abdominal infection assessed as susceptible isolates by EUCAST method
Escherichia coli [6] = test: Antimicrobial activity against hospital-acquired Escherichia coli expressing extended spectrum beta-lactamase obtained from patient with intra-abdominal infection assessed as susceptible isolates by EUCAST method
Klebsiella pneumoniae [7] = test: Antimicrobial activity against hospital-acquired Klebsiella pneumoniae expressing extended spectrum beta-lactamase obtained from patient with intra-abdominal infection assessed as susceptible isolates by EUCAST method
Klebsiella pneumoniae [8] = test: Antimicrobial activity against community-acquired Klebsiella pneumoniae expressing extended spectrum beta-lactamase obtained from patient with intra-abdominal infection assessed as susceptible isolates by EUCAST method
Escherichia coli [9] = test: Antimicrobial activity against hospital-acquired Escherichia coli expressing extended spectrum beta-lactamase obtained from patient with intra-abdominal infection assessed as susceptible isolates by EUCAST method in presence of beta-lactamase inhibitor Sulbactam
Klebsiella pneumoniae [10] = test: Antimicrobial activity against community-acquired Klebsiella pneumoniae expressing extended spectrum beta-lactamase obtained from patient with intra-abdominal infection assessed as susceptible isolates by EUCAST method in presence of beta-lactamase inhibitor Sulbactam
Klebsiella pneumoniae [11] = test: Antimicrobial activity against community-acquired Klebsiella pneumoniae obtained from patient with intra-abdominal infection assessed as susceptible isolates by EUCAST method in presence of beta-lactamase inhibitor Sulbactam
Klebsiella pneumoniae [12] = test: Antimicrobial activity against hospital-acquired Klebsiella pneumoniae expressing extended spectrum beta-lactamase obtained from patient with intra-abdominal infection assessed as susceptible isolates by EUCAST method in presence of beta-lactamase inhibitor Sulbactam
Escherichia coli [13] = test: Antimicrobial activity against hospital-acquired Escherichia coli obtained from patient with intra-abdominal infection assessed as susceptible isolates by EUCAST method in presence of beta-lactamase inhibitor Sulbactam
Escherichia coli [14] = test: Antimicrobial activity against community-acquired Escherichia coli expressing extended spectrum beta-lactamase obtained from patient with intra-abdominal infection assessed as susceptible isolates by EUCAST method in presence of beta-lactamase inhibitor Sulbactam
Escherichia coli [15] = test: Antimicrobial activity against community-acquired Escherichia coli obtained from patient with intra-abdominal infection assessed as susceptible isolates by EUCAST method in presence of beta-lactamase inhibitor Sulbactam
Klebsiella pneumoniae [16] = test: Antimicrobial activity against hospital-acquired Klebsiella pneumoniae obtained from patient with intra-abdominal infection assessed as susceptible isolates by EUCAST method in presence of beta-lactamase inhibitor Sulbactam

Compound	Activity (Escherichia coli [1]) [%]	Activity (Escherichia coli [2]) [%]	Activity (Escherichia coli [3]) [%]	Activity (Klebsiella pneumoniae [4]) [%]	Activity (Klebsiella pneumoniae [5]) [%]	Activity (Escherichia coli [6]) [%]	Activity (Klebsiella pneumoniae [7]) [%]	Activity (Klebsiella pneumoniae [8]) [%]	Activity (Escherichia coli [9]) [%]	Activity (Klebsiella pneumoniae [10]) [%]	Activity (Klebsiella pneumoniae [11]) [%]	Activity (Klebsiella pneumoniae [12]) [%]	Activity (Escherichia coli [13]) [%]	Activity (Escherichia coli [14]) [%]	Activity (Escherichia coli [15]) [%]	Activity (Klebsiella pneumoniae [16]) [%]
NCC[C@H](O)C(=O)N[C@@H]1C[C@H](N)[C@@H](O[C@H]2O[C@H](CN)[C@@H](O)[C@H](O)[C@H]2O)[C@H](O)[C@H]1O[C@H]1O[C@H](CO)[C@@H](O)[C@H](N)[C@H]1O [AMIKACIN]	98.5	97	59.5	92.7	98.6	53.7	66	75	–	–	–	–	–	–	–	–
CC1(C)S[C@@H]2[C@H](NC(=O)[C@H](N)c3ccccc3)C(=O)N2[C@H]1C(=O)O [AMPICILLIN]	–	–	–	–	–	–	–	–	9.1	0	79.2	6.4	44.5	5.4	53	62.9
CO/N=C(\C(=O)N[C@@H]1C(=O)N2C(C(=O)[O-])=C(C[N+]3(C)CCCC3)CS[C@H]12)c1csc(N)n1 [CEFEPIME]	98.5	–	8.1	91.6	98.6	9.9	10.6	0	–	–	–	–	–	–	–	–
CO/N=C(\C(=O)N[C@@H]1C(=O)N2C(C(=O)O)=C(COC(C)=O)CS[C@H]12)c1csc(N)n1 [CEFOTAXIME]	98.7	95.8	0	92.1	100	3.3	6.4	0	–	–	–	–	–	–	–	–
CC(C)(O/N=C(\C(=O)N[C@@H]1C(=O)N2C(C(=O)[O-])=C(C[n+]3ccccc3)CS[C@H]12)c1csc(N)n1)C(=O)O [CEFTAZIDIME]	97.2	94.3	8.1	91	98.6	5.8	0	0	–	–	–	–	–	–	–	–
CO/N=C(\C(=O)N[C@@H]1C(=O)N2C(C(=O)O)=C(CSc3nc(=O)c(O)nn3C)CS[C@H]12)c1csc(N)n1 [CEFTRIAXONE]	98.3	95.8	2.7	90.5	98.6	3.3	4.3	0	–	–	–	–	–	–	–	–
O=C(O)c1cn(C2CC2)c2cc(N3CCNCC3)c(F)cc2c1=O [CIPROFLOXACIN]	–	78.3	29.7	79.2	94.4	22.3	29.8	50	–	–	–	–	–	–	–	–
C[C@@H](O)[C@H]1C(=O)N2C(C(=O)O)=C(S[C@@H]3CN[C@H](C(=O)Nc4cccc(C(=O)O)c4)C3)[C@H](C)[C@H]12 [ERTAPENEM]	99.3	98.9	100	93.3	100	99.2	83	100	–	–	–	–	–	–	–	–
C[C@@H](O)[C@H]1C(=O)N2C(C(=O)O)=C(SCCNC=N)C[C@H]12 [IMIPENEM ANHYDROUS]	99.8	99.6	100	94.9	100	100	89.4	100	–	–	–	–	–	–	–	–
C[C@H]1COc2c(N3CCN(C)CC3)c(F)cc3c(=O)c(C(=O)O)cn1c23.C[C@H]1COc2c(N3CCN(C)CC3)c(F)cc3c(=O)c(C(=O)O)cn1c23.O [LEVOFLOXACIN]	87	79.8	32.4	83.2	97.2	24.8	40.4	50	–	–	–	–	–	–	–	–
